Experiments:
[1] = Glutathione selectivity: absorption/fluorescence spectrum with various amino acids in HEPES buffer; assay type: biochemical; conditions: 10 μM compound
Description: 10 μM of the compound prepared in Example 2 was treated to HEPES (4-(2-hydroxyethyl)piperazine-1-ethanesulfonic acid) buffer (10 mM, pH=7.4) containing 10% DMSO and 100 μM of each glutathione, cysteine, homocysteine, dithiothreitol, phenylalanine, histidine, glutamine, lysine, glutamate, glycine, serine, alanine, arginine, methionine, and tyrosine, followed by observation of fluorescence spectrum at 25° C. by using RF-5310/PC fluorescence spectrometer (Shimada, 1 cm quartz cell).
An experiment was performed by the same manner as described in Experimental Example 3 except that the fragment 1 or the fragment 2 was used instead of the compound prepared in Example 2. […] To disclose the reason in relation to the above, the 3-dimensional structure of each of the compound of Example 1, the compound of Example 2, and the fragment 1 or the fragment 2, was investigated along with band-gap.
10 μM of the compound prepared in Example 3 and 100 μM of each endogenous amino acid (alanine, arginine, cysteine, glutamate, glycine, glutathione, homocysteine, histidine, lysine, methionine, serine, and tyrosine) were added to HEPES (4-(2-hydroxyethyl)piperazine-1-ethanesulfonic acid) buffer (10 mM, pH=7.4) containing 10% dimethylsulfoxide (DMSO), followed by observation of absorption spectrum presented through UV-vis sepctra (Scinco 3000 spectrophotometer, 1 cm quartz cell) at 25° C.
The following experiment was performed by the same manner as described in Experimental Example <15-1> except that fluorescence spectrum was observed by using RF-5310/PC fluorescence spectrometer (Shimada, 1 cm quartz cell) instead of observing absorption spectrum via UV-vis sepctra (Scinco 3000 spectrophotometer, 1 cm quartz cell) (λex=730 nm, λem=736 nm, slit:10/10 nm).

[2] = system: C57BL/6 mouse; experiment: Detection of glutathione in a mouse model with N-methylmaleimide (NMM), IVIS imaging; assay type: in vivo
Description: 200 μL of HEPES (4-(2-hydroxyethyl)piperazine-1-ethanesulfonic acid) buffer (10 mM, pH=7.4) containing 20 mM of N-methylmaleimide (NMM) known as a thiol blocker was administered to each C57BL/6 mouse (7˜8 weeks old, female, Jackson Laboratory) via intravenous injection. 20 minutes later, 200 μL of HEPES (4-(2-hydroxyethyl)piperazine-1-ethanesulfonic acid) buffer (10 mM, pH=7.4) containing 50 mM of the compound prepared in Example 2 was administered to the mouse via intravenous injection. 20 minutes later, the strength of fluorescence was observed by using the epifluorescence mode of In Vivo Imaging System (IVIS) spectrum (Caliper LifeSciences, USA) equipped with the filter having the wavelengths of 675 nm and 720 nm [the strength of fluorescence was measured by Living Image Software 4.3.1 (Caliper Life Sciences, USA)].

[3] = system: HeLa cells; experiment: Detection of intracellular biothiol in HeLa cells, confocal laser scanning microscope; assay type: cell-based, human; conditions: 10 μM compound
Description: HeLa cells (human adenocarcinoma cells, Korea Cell Line Bank) were cultured in RPMI 1640 (Roswell Park Memorial Institute) supplemented with 10% heat-inactivated fetal bovine serum (FBS), 100 U/mL penicillin, and 100 U/mL streptomycin in a 37° C. 5% CO2 incubator. The cells were either treated or not treated with 1 mM of N-methylmaleimide (NMM) known as a thiol blocker for 20 minutes. 100 μM of each amino acid containing thiol group (R—SH) such as cysteine, homocysteine, and glutathione was added thereto. Then, the cells were seeded in 35-mm glass bottomed dishes at the density of 3×10^5 cells/dish in 1640 medium. 24 hours later, 10 μM of the compound prepared in Example 1 was added thereto, followed by culture at 37° C. for 20 minutes. The cells were washed with DPBS (Dulbecco's Phosphate Buffered Saline) twice to eliminate the remaining compound, followed by imaging with confocal laser scanning microscope (Fluoview 1200, Olympus, Japan). At this time, the emitting filter with the excitation wavelength of 635 nm and the band-path (BP) of 655˜755 nm was used.

[4] = system: RAW 264.7 cells; experiment: Changes of glutathione concentration in the presence of an oxidant (peroxynitrite), RAW 264.7 cells; assay type: cell-based; conditions: for red fluorescence under confocal laser scanning microscope: 20 μM compound
Description: RAW 264.7 cells (macrophage cell line, Korea Cell Line Bank) were cultured in RPMI 1640 (Roswell Park Memorial Institute) supplemented with 10% heat-inactivated fetal bovine serum (FBS), 100 U/mL penicillin, and 100 U/mL streptomycin in a 37° C. 5% CO2 incubator.
RAW 264.7 cells displaying the characteristics of generating ROS (Reactive Oxygen Species) or RNS (Reactive Nitrogen Species) were treated with 1 μg/mL of lipopolysaccharide (LPS) for 20 minutes, 50 ng/mL of interferon-γ for 16 hours, and 20 μM of phorbol 12-myristate 13-acetate (PMA) for 20 minutes in order to induce the generation of endogenous feroxynitrite having the characteristics of an oxidant. Then, the cells were seeded in 35-mm glass bottomed dishes at the density of 3×10^5 cells/dish in 1640 medium. 24 hours later, the compound prepared in Example 2 was treated thereto at the concentration of 20 μM for 20 minutes. The cells were washed with DPBS (Dulbecco's Phosphate Buffered Saline) three times, followed by imaging with confocal laser scanning microscope (Fluoview 1200, Olympus, Japan). At this time, the emitting filter with the excitation wavelength of 635 nm and the band-path (BP) of 655˜755 nm was used.

[5] = mouse treated with NMM together with the compound

With `CCCN1/C(=C/C=C2\CCCC(/C=C/C3=[N+](CCC)c4ccccc4C3(C)C)=C2N2CCN(S(=O)(=O)c3cccc4c(N(C)C)cccc34)CC2)C(C)(C)c2ccccc21.[I-]` [Example 2, 2-((E)-2-((E)-3-((E)-2-(3,3-dimethyl-1-propylindolin-2-ylidene)ethylidene)-2-(4-(5-(dimethylamino)naphthalene-1-ylsulfonyl)piperazine-1-yl)cyclohex-1-enyl)binyl)-3,3-dimethyl-1-propyl-3H-indolium iodide] the “fluorescence strength near 735 nm” value ([1]; 100 μM glutathione, HEPES pH 7.4, 10% DMSO, 25° C.) was “strong fluorescence strength”, the “fluorescence strength at 736 nm” value ([1]; 100 μM other amino acids, HEPES pH 7.4, 10% DMSO) was “very weak fluorescence strength” and the “fluorescence signal at around 736 nm over the time: selectivity among cysteine, homocysteine and glutathione” value ([1]; glutathione, cysteine, homocysteine, FIG. 5) was “selectively reacted to glutathione alone”. The “red fluorescence in liver, kidney, lung, and spleen, IVIS spectrum” value [2, 5] was “red fluorescence was not observed”, the “red fluorescence of the mouse, IVIS spectrum” value [2, 5] was “red fluorescence was not observed” and the “red fluorescence in liver, kidney, lung, and spleen, IVIS spectrum” value ([2]; mouse treated with the compound alone) was “strong red fluorescence was observed”. The “red fluorescence of the mouse, IVIS spectrum” value ([2]; mouse treated with the compound alone, intravenous injection, 20 minutes) was “strong red fluorescence was observed”, the “red fluorescence under confocal laser scanning microscope” value ([3]; HeLa cells pre-treated with NMM, 100 μM cysteine added) was “red fluorescence was not detected” and the “red fluorescence under confocal laser scanning microscope” value ([3]; HeLa cells pre-treated with NMM, 100 μM glutathione added) was “strong red fluorescence was observed”. For the same compound, the “red fluorescence under confocal laser scanning microscope” value ([3]; HeLa cells pre-treated with NMM, 100 μM homocysteine added) was “red fluorescence was not detected”, the “red fluorescence under confocal laser scanning microscope” value ([3]; HeLa cells pre-treated with thiol blocker NMM 1 mM) was “red fluorescence was not observed” and the “red fluorescence under confocal laser scanning microscope” value ([3]; HeLa cells, 20 minutes) was “strong red fluorescence was observed”. For the same compound, the “red fluorescence under confocal laser scanning microscope” value ([4]; RAW 264.7 cells with induced peroxynitrite (LPS, interferon-γ, PMA)) was “red fluorescence was not observed”, the “red fluorescence under confocal laser scanning microscope” value ([4]; RAW 264.7 cells, 20 minutes) was “strong red fluorescence” and the “reaction to oxidized glutathione, glutathione disulfide (GSSG)” value ([4]; RAW 264.7 cells, peroxynitrite) was “did not react”.

Reference: patent US9951226B2, “Compound based on cyanine scaffold for diagnosis sepsis by selectively detect glutathione” (EWHA UNIVERSITY—INDUSTRY COLLABORATION FOUNDATION, priority 2014, dated 2018)
